{"source": "patent US12708627B2", "about": "“Combination therapy for VAV3 cancer” (Children's Hospital Medical Center, priority 2021, dated 2026)", "key": {"[1]": {"test_system": "empty vector-transduced CD34+ human peripheral blood cells", "experiment": "Proliferation and survival of CD34+ cells transduced with empty vector", "type": "cell-based", "settings": "IODVA1 1 or 3 μM"}, "[2]": {"test_system": "wild-type murine leukemic cells expressing p190-BCR-ABL1", "experiment": "Colony formation (CFU-proB) of wild-type leukemic cells", "type": "cell-based", "settings": "for number of colonies, mean±SD: vehicle 72±9.5", "experimental": "Results are representative of two independent experiments.\n(§1) Quantification against total VAV3 is shown. […] Experiments were performed in triplicates.\nRAC1^Δ/Δ+RAC2^−/−-murine leukemic cells show severe reduction in RAC1 expression and are deficient in RAC2 (FIG. 10D). […] RAC1^Δ/Δ+RAC2^−/−-leukemic cells formed 3.8-times less colonies than wild-type leukemic cells.\n(§2) CFU-proB Assay: B-cell lineage colony-forming units (CFU-proB) were quantified post 9-day culture of leukemic BM cells or sorted for p190-BCR-ABL1-expressing B-cell progenitors in M3134 methylcellulose (StemCell Technologies) supplemented with 30% FBS (for mouse B lymphoid colony forming cells; StemCell Technologies), 2 mM L-glutamine and 1% penicillin-streptomycin (Invitrogen), 100 μM β-mercaptoethanol (Fisher-Scientific), 1% BSA (Sigma-Aldrich), 20 ng/mL of recombinant mIL-7 and 100 ng/ml of recombinant mSCF (PeproTech)."}, "[3]": {"test_system": "VAV3−/− murine BM leukemic cells expressing p190-BCR-ABL1", "experiment": "Colony formation and cell cycle of VAV3-deficient leukemic cells", "type": "cell-based", "settings": "for number of colonies, mean±SD: vehicle 20±3.1", "experimental": "as §1\n(§3) (FIG. 5A) Schematic of domain architecture of full-length, ΔCH and GEF-mutant VAV3; calponin-homology (CH), acidic region (Ac), Dbl-homology (DH), pleckstrin-homology (PH), zinc finger (ZF), SRC-homology 2 and 3 (SH2/SH3). Black circle and star indicate Y173 and N369, respectively.\n(§4) Re-introducing full-length or ΔCH VAV3 results in similar number of colonies as with wild-type BM leukemic cells (black bars, mean of 200.3 and 183.3 vs 188.3, respectively), a 3-fold increase from VAV3^−/− leukemic cells expressing the empty vector (mean=64.3 colonies).\nas §2\nCell Cycle Analysis: Cell cycle was analyzed via in vitro BrdU incorporation (BD Pharmingen, Cat #552598). Briefly, leukemic progenitors were incubated with 1 mM BrdU solution for 45 minutes, cells were further fixed and permeabilized. DNAse treatment was done according to the instructions and stained with anti BrdU and apoptosis was analyzed by 7-AAD staining through flow cytometry analysis."}, "[4]": {"test_system": "VAV3−/− p190-BCR-ABL1 leukemic cells expressing N369A VAV3", "experiment": "VAV3 rescue: cell cycle and colony formation, N369A GEF-deficient mutant", "type": "cell-based, murine", "settings": "up to 10 μM", "source_text": "as §3, §4\nFor VAV3 rescue experiments, low density bone marrow cells from wild-type (VAV3^+/+) or VAV3^−/− mice were transduced with bicistronic retroviral vector encoding p190 BCR-ABL1-IRES-YFP and sorted for YFP^+ 48 h post-transduction. Cells were then transduced with lentiviral particles encoding either empty vector, full-length WT or mutant VAV3 (pCDH1-MCS1-EF1-copGFP). […] Cell cycle was analyzed at 18 h post BrdU incorporation."}, "VAV3": {"biological_target": "T1, VAV3 (Homo sapiens, UniProt Q9UKW4)", "T1 sequence (Q9UKW4 1-847)": "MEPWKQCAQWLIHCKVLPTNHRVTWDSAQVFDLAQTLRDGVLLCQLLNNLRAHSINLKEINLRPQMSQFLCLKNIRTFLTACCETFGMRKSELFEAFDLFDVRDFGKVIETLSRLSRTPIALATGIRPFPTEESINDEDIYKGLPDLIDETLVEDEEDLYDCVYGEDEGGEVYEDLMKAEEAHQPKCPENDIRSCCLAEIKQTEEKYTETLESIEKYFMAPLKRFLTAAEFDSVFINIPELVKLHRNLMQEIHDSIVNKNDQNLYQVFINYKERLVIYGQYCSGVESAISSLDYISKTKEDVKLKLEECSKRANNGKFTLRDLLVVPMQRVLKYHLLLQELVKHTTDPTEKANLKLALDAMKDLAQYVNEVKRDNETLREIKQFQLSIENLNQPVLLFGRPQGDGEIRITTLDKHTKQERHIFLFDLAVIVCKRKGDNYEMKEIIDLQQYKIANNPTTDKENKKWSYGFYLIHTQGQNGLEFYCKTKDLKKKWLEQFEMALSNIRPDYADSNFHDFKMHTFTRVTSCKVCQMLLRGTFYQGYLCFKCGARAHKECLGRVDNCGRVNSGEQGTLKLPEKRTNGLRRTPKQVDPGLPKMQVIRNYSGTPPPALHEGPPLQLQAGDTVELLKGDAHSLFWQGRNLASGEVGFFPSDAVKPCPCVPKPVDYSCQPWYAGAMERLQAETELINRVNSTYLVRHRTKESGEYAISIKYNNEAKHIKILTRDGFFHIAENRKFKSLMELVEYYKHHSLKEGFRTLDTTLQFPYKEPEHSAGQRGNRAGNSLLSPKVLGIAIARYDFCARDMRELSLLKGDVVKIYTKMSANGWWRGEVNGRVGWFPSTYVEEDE", "experiment": "pVAV3 immunohistochemistry of MDA-MB-231 xenograft tumors", "type": "in vivo, mice", "set-up": "Immunohistochemical staining of phosphorylated VAV3 in tissue derived from MDA-MB-231 xenografts; from tissue; host or cells: MDA-MB-231 xenograft tumour sections", "settings": "versus vehicle control", "experimental": "(7A) Immunoblot—efficiency of shRNA-mediated VAV3 knockdown in MDA-MB-231 triple negative breast cancer.\nHistology: Embedded tissues were cut into 4 μm sections then immunohistochemically stained using the Mouse on Mouse kit (MoM kit, Vector Laboratories). Tissue sections were subjected to sodium citrate antigen retrieval, pretreated with 0.3% hydrogen peroxide, blocked according to kit directions, and incubated with an antibody to phosphorylated VAV3 (Abcam) and HRP-conjugated anti-rabbit secondary (Vector Laboratories). Staining was completed with the DAB Peroxidase kit (Vector Laboratories) and counterstained with hematoxylin. Tissue sections were coverslipped with Cytoseal 60 and images acquired with a Nikon Eclipse Ci microscope."}}, "note": "Entries after “also recorded” stand apart in the source; their conditions may differ.", "data": [{"compound": "OC1(c2ccccc2)NC(=Nc2nc3ccccc3[nH]2)N=C1c1ccccn1", "note": "(stereo not drawn) [IODVA1]", "values": [{"measurement": "survival by trypan blue exclusion", "setting": "[1]", "value": "not affected"}, {"measurement": "decrease of number of colonies, average", "setting": "[2]; 1 μM", "value": 2.4, "unit": "fold"}, {"measurement": "number of colonies, mean±SD", "setting": "[2]; 1 μM", "value": "30±9.2"}, {"measurement": "decrease of number of colonies, average", "setting": "[2]; 3 μM", "value": 7, "unit": "fold"}, {"measurement": "number of colonies, mean±SD", "setting": "[2]; 3 μM", "value": "12±2.5"}, {"measurement": "ability to form colonies", "setting": "[2]; IODVA1 1 μM", "value": "significantly decreased"}, {"measurement": "number of colonies, mean±SD", "setting": "[3]; 1 μM", "value": "20±2.5"}, {"measurement": "cell cycle analysis", "setting": "[3]; 3 μM, 20 h", "value": "not affected"}, {"measurement": "number of colonies, mean±SD", "setting": "[3]; 3 μM", "value": "15±7.5"}, {"measurement": "number of colonies", "setting": "[3]; VAV3−/− cells expressing empty vector, 10 μM", "value": 66, "unit": "colonies"}, {"measurement": "sensitivity to IODVA1, cell cycle and colony formation", "setting": "[4]", "value": "did not re-sensitize; also recorded: insensitive"}, {"measurement": "pVAV3 staining of tumor sections", "setting": "VAV3", "value": "significant decrease"}]}]}
